In patent publication US20200331904A1, “3-AMINO-[1,2,4]-TRIAZOLE DERIVATIVES AND THEIR USE FOR CONTROLLING UNDESIRED PLANT GROWTH” (Bayer CropScience Aktiengesellschaft, priority 2017, published 2020):

How the values were obtained:
Format in all cases: in vivo
Conditions in all cases: Table B1, application rate 320 g/ha, scored visually after about 3 weeks vs untreated controls
Stellaria media = assay: Pre-emergence herbicidal efficacy, STEME
Procedure, shortened: (§1)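 Seeds were sown in pots and covered with soil; WP or EC formulations were sprayed onto the soil surface as aqueous suspension or emulsion with 0.5% additive. Pots were kept in a greenhouse, and after about 3 weeks damage was rated visually as percent versus untreated controls (100% = plants dead, 0% = like control).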

Abutilon theophrasti = assay: Pre-emergence herbicidal efficacy, ABUTH
Text: (§2) C.1 Pre-Emergence Herbicidal Action and Crop Plant Compatibility
(§3) Seeds of monocotyledonous and dicotyledonous weed plants and crop plants are placed in plastic or organic planting pots and covered with soil. The compounds of the invention, formulated in the form of wettable powders (WP) or as emulsion concentrates (EC), are then applied onto the surface of the covering soil as aqueous suspension or emulsion with addition of 0.5% additive at a water application rate of […] (converted). After the treatment, the pots are placed in a greenhouse and kept under good growth conditions for the trial plants. After about 3 weeks, the effect of the preparations is scored visually in comparison with untreated controls as percentages. For example, 100% activity=the plants have died, 0% activity=like control plants.
(§4) ABUTH: Abutilon theophrasti ALOMY: Alopecurus myosuroides AMARE: Amaranthus retroflexus AVEFA: Avena fatua CYPES: Cyperus esculentus ECHCG: Echinochloa crus-galli LOLMU: Lolium multiflorum MATIN: Matricaria inodora PHBPU: Ipomoea purpurea POLCO: Polygonum convolvulus SETVI: Setaria viridis STEME: Stellaria media VERPE: Veronica persica VTOTR: Viola tricolor

Setaria viridis = assay: Pre-emergence herbicidal efficacy, SETVI
Text: as §2, §3, §4

Polygonum convolvulus = assay: Pre-emergence herbicidal efficacy, POLCO
Text: as §2, §3, §4

Amaranthus retroflexus = assay: Pre-emergence herbicidal efficacy, AMARE
Procedure, shortened: as §1

Echinochloa crus-galli = assay: Pre-emergence herbicidal efficacy, ECHCG
Text: as §2, §3, §4

Lolium rigidum = assay: Pre-emergence herbicidal efficacy, LOLRI
Text: C.1 Pre-Emergence Herbicidal Action and Crop Plant Compatibility Seeds of monocotyledonous and dicotyledonous weed plants and crop plants are placed in plastic or organic planting pots and covered with soil. The compounds of the invention, formulated in the form of wettable powders (WP) or as emulsion concentrates (EC), are then applied onto the surface of the covering soil as aqueous suspension or emulsion with addition of 0.5% additive at a water application rate of […] (converted). After the treatment, the pots are placed in a greenhouse and kept under good growth conditions for the trial plants. After about 3 weeks, the effect of the preparations is scored visually in comparison with untreated controls as percentages. For example, 100% activity=the plants have died, 0% activity=like control plants. […] Here, for example, compound Nos. I-214 and I-196, when applied pre-emergence, have very good activity (80% to 100% herbicidal activity) against harmful plants such as Abutilon theophrasti, Amaranthus retroflexus, Echinochloa crus-galli, Lolium rigidum, Matricaria inodora, Polygonum convolvulus, Setaria viridis, Stellaria media, Veronica persica and Viola tricolor at an application rate of 0.32 kg of active substance or less per hectare. At the same time, some of the compounds according to the invention leave Gramineae crops such as barley, wheat, rye, millet/sorghum, corn, rice or sugar cane virtually undamaged when applied pre-emergence, even at high active compound dosages. In addition, some substances are also harmless to dicotyledonous crops such as soya, cotton, oilseed rape or sugar beet.

Matricaria inodora = assay: Pre-emergence herbicidal efficacy, MATIN
Procedure, shortened: as §1

Viola tricolor = assay: Pre-emergence herbicidal efficacy, VIOTR
Procedure, shortened: as §1

Veronica persica = assay: Pre-emergence herbicidal efficacy, VERPE
Procedure, shortened: as §1

Structure (SMILES) | Herbicidal efficacy against STEME (Stellaria media) [%] | Herbicidal efficacy against ABUTH (Abutilon theophrasti) [%] | Herbicidal efficacy against SETVI (Setaria viridis) [%] | Herbicidal efficacy against POLCO (Polygonum convolvulus) [%] | Herbicidal efficacy against AMARE (Amaranthus retroflexus) [%] | Herbicidal efficacy against ECHCG (Echinochloa crus-galli) [%] | Herbicidal efficacy against LOLRI (Lolium rigidum) [%] | Herbicidal efficacy against MATIN (Matricaria inodora) [%] | Herbicidal efficacy against VIOTR (Viola tricolor) [%] | Herbicidal efficacy against VERPE (Veronica persica) [%]
Cc1ccc2c(c1)C(Nc1nc3n(n1)CCCS3(=O)=O)CC2 (stereo not drawn) [Example I-238] | 100 | 100 | 100 | 100 | 100 | 80 | 90 | 100 | 100 | 100
Cc1ccc2c(c1)[C@H](Nc1nc3n(n1)CCCC[S+]3[O-])CC2 (stereo partly drawn) [Example I-370] | 100 | 100 | 100 | 100 | 100 | 100 | 100 | 100 | 100 | 100
Cc1ccc2c(c1)[C@H](Nc1nc3n(n1)CCN(S(=O)(=O)C(C)C)C3)CC2 [Example I-197] | 100 | 100 | 100 | 80 | 100 | 90 | 80 | 100 | 100 | 100
Cc1ccc2c(c1)[C@H](Nc1nc3n(n1)CCN(S(C)(=O)=O)C3)CC2 [Example I-196] | 100 | 100 | 100 | 100 | 100 | 100 | 100 | 100 | 100 | 100
Cc1ccc2c(c1)[C@H](Nc1nc3n(n1)CCN(C(=O)C1CC1)C3)CC2 [Example I-175] | 100 | 100 | 100 | 100 | 100 | 100 | 100 | 100 | 100 | 100
Cc1ccc2c(c1)C(Nc1nc3n(n1)CCN(C(=O)C1CC1)C3)C(C)C2 (stereo not drawn) [Example I-167] | 100 | 100 | 100 | 100 | 100 | 100 | 100 | 100 | 100 | 100
Cc1ccc2c(c1)[C@H](Nc1nc3n(n1)CCCS3)[C@@H](C)C2 [Example I-348] | 100 | 100 | 100 | 100 | 100 | 100 | 80 | 100 | 100 | 100
Cc1ccc2c(c1)[C@H](Nc1nc3n(n1)CCCC[S+]3[O-])CCO2 (stereo partly drawn) [Example I-380] | 100 | 100 | 100 | 100 | 100 | 100 | 80 | 100 | 100 | 100
Cc1ccc2c(c1)C(Nc1nc3n(n1)CCN(C(C)C)C3)C(C)C2 (stereo not drawn) [Example I-152] | 100 | 100 | 100 | 100 | 100 | 100 | 100 | 100 | 100 | 100
Cc1ccc2c(c1)[C@H](Nc1nc3n(n1)CCCCS3(=O)=O)CC2 [Example I-365] | 100 | 100 | 100 | 100 | 100 | 90 | 100 | 100 | 100 | 100
Fc1ccc2c(c1)[C@H](Nc1nc3n(n1)CCCCS3)CCC2 [Example I-215] | 100 | 100 | 100 | 100 | 100 | 100 | 100 | 100 | 100 | 100
Cc1ccc2c(c1)C(Nc1nc3n(n1)CCN(C(=O)c1ccc(Cl)cc1)C3)C(C)C2 (stereo not drawn) [Example I-171] | 100 | 100 | 100 | 100 | 100 | 90 | 100 | 100 | 100 | 100
